Data: US9090583B2, “Benzopyrone estrogen receptor regulator” (BEIJING SHENOGEN PHARMA GROUP LTD., priority 2010, dated 2015)
Where two headings read alike, the source gives them in different places.

Key:
[1] = system: MDA-MB-231 cells; assay: CellTiter-Glo Luminescent Cell Viability Assay on ER-negative breast cancer MDA-MB-231 cells; format: cell-based; details: average ± standard deviation when tested more than 3 times, read-out: Inhibition of the viability of breast cancer cells, IC50
Description: A: In Vitro CellTiter-Glo® Luminescent Cell Viability Assay on ER-Negative Breast Cancer MDA-MB-231 Cells:
MDA-MB-231 cells were maintained at 37° C., under 5% CO2 atmosphere in DMEM containing 10% fetal calf serum. The cells were seeded on 96-well plate at a density of 6×10^3 cells per well. MDA-MB-231 cells were treated with a test compound dissolved in DMSO at the concentrations of zero, 0.3 μM, 0.5 μM, 1 μM, 2 μM, 3 μM, 5 μM, 10 μM, 20 μM, 30 μM, 50 μM and 100 μM for 72 hours. Treated cells were examined by CellTiter-Glo® Luminescent Cell Viability Assay Kit (Promega), and luminescence values were recorded with Envision.

[2] = system: MCF7 cells; assay: CellTiter-Glo Luminescent Cell Viability Assay on ER-positive breast cancer MCF-7 cells; format: cell-based, human; details: average ± standard deviation when tested more than 3 times, read-out: Inhibition of the viability of breast cancer cells, IC50
Source text: B: In Vitro CellTiter-Glo® Luminescent Cell Viability Assay on ER-Positive Breast Cancer MCF-7 Cells:
MCF7 cells are breast cancer cell lines that highly express ER-66, ER-46 and ER-36. (Relevance of breast cancer cell lines as models for breast tumours: an update. Marc Lacroix, Guy Leclercq, Breast Cancer Research and Treatment (2004) 83, 249-289; Wang et al., Proc. Natl. Acad. Sci. U.S.A. 103:9063-9068 (2006)). MCF7 cells were obtained from ATCC and maintained in Dulbecco's Modified Eagles Medium (DMEM) and 10% fetal calf serum at 37° C., under 5% CO2 atmosphere. The cells were seeded on 96-well plate at a density of 6×10^3 cells per well. MCF7 cells were treated with a test compound dissolved in DMSO at the concentrations of zero, 0.3 μM, 0.5 μM, 1 μM, 2 μM, 3 μM, 5 μM, 10 μM, 20 μM, 30 μM, 50 μM and 100 μM for 72 hours. Treated cells were examined by CellTiter-Glo® Luminescent Cell Viability Assay Kit (Promega), and luminescence values were recorded with Envision.

Compound	IC50 ([1]; 72 hours)	IC50 ([2]; 72 hours)	IC50 ([1]; Homo sapiens, MDA-MB-231, 72 h)	IC50 ([2]; Homo sapiens, MCF7, 72 h)
COc1ccc(-c2oc3c(CC=C(C)C)c(O)c(CC=C(C)C)c(O)c3c(=O)c2OC)cc1F [Compound 1, 2-(3-fluoro-4-methoxyphenyl)-5,7-dihydroxy-3-methoxy-6,8-di(3-methyl-2-buten-1-yl)-4H-benzopyran-4-one]	–	–	14.2 ± 5.18 µM	16 µM
COc1c(-c2cccc(F)c2)oc2c(CC=C(C)C)c(O)c(CC=C(C)C)c(O)c2c1=O [Compound 3, 2-(3-fluorophenyl)-5,7-dihydroxy-3-methoxy-6,8-di(3-methyl-2-buten-1-yl)-4H-benzopyran-4-one]	–	–	12.6 ± 2.4 µM	10.4 ± 0.22 µM
COc1cc(-c2oc3c(CC=C(C)C)c(O)c(CC=C(C)C)c(O)c3c(=O)c2OC)ccc1F [Compound 9, 2-(4-fluoro-3-methoxyphenyl)-5,7-dihydroxy-3-methoxy-6,8-di(3-methyl-2-butylene-1-yl)-4H-benzopyran-4-one]	> 100 µM	> 100 µM	–	–
COc1c(-c2ccc(Cl)c(C)c2)oc2c(CC=C(C)C)c(O)c(CC=C(C)C)c(O)c2c1=O [Compound 11, 2-(4-chloro-3-methylphenyl)-5,7-dihydroxy-3-methoxy-6,8-di(3-methyl-2-buten-1-yl)-4H-benzopyran-4-one]	–	–	13.8 µM	15.5 µM
COc1c(-c2ccc(Cl)c(Cl)c2)oc2c(CC=C(C)C)c(O)c(CC=C(C)C)c(O)c2c1=O [Compound 12, 2-(3,4-dichlorophenyl)-5,7-dihydroxy-3-methoxy-6,8-di(3-methyl-2-butylene-1-yl)-4H-benzopyran-4-one]	16.1 µM	> 100 µM	–	–
COc1c(-c2ccc(Cl)c(C(F)(F)F)c2)oc2c(CC=C(C)C)c(O)c(CC=C(C)C)c(O)c2c1=O [Compound 13, 2-(4-chloro-3-trifluoromethylphenyl)-5,7-dihydroxy-3-methoxy-6,8-di(3-methyl-2-butylene-1-yl)-4H-benzopyran-4-one]	22.7 µM	35.4 µM	–	–
COc1c(-c2ccc(Cl)cc2F)oc2c(CC=C(C)C)c(O)c(CC=C(C)C)c(O)c2c1=O [Compound 14, 2-(2-fluoro-4-chlorophenyl)-5,7-dihydroxy-3-methoxy-6,8-di(3-methyl-2-butylene-1-yl)-4H-benzopyran-4-one]	23.6 µM	13.5 µM	–	–
COc1c(-c2ccc(C)cc2)oc2c(CC=C(C)C)c(O)c(CC=C(C)C)c(O)c2c1=O [Compound 16, 2-(4-methylphenyl)-5,7-dihydroxy-3-methoxy-6,8-di(3-methyl-2-butylene-1-yl)-4H-benzopyran-4-one]	16.3 µM	> 100 µM	–	–
COc1c(-c2ccc(C(C)C)cc2)oc2c(CC=C(C)C)c(O)c(CC=C(C)C)c(O)c2c1=O [Compound 17, 2-(4-isopropylphenyl)-5,7-dihydroxy-3-methoxy-6,8-di(3-methyl-2-butylene-1-yl)-4H-benzopyran-4-one]	25.6 µM	40.1 µM	–	–
COc1c(-c2ccc3ccccc3c2)oc2c(CC=C(C)C)c(O)c(CC=C(C)C)c(O)c2c1=O [Compound 19, 2-(naphthalen-2-yl)-5,7-dihydroxy-3-methoxy-6,8-di(3-methyl-2-butylene-1-yl)-4H-benzopyran-4-one]	13.7 ± 1.99 µM	27.4 µM	–	–
COc1c(-c2ccc3c(c2)OCCO3)oc2c(CC=C(C)C)c(O)c(CC=C(C)C)c(O)c2c1=O [Compound 20, 2-(2,3-dihydrobenzo[b][1,4]dioxan-6-yl)-5,7-dihydroxy-3-methoxy-6,8-di(3-methyl-2-buten-1-yl)-4H-benzopyran-4-one]	12.6 µM	> 100 µM	–	–
CCOc1ccc(-c2oc3c(CC=C(C)C)c(O)c(CC=C(C)C)c(O)c3c(=O)c2OC)cc1F [Compound 23, 2-(3-fluoro-4-ethoxylphenyl)-5,7-dihydroxy-3-methoxy-6,8-di(3-methyl-2-buten-1-yl)-4H-benzopyran-4-one]	–	–	28.8 µM	20.1 µM

Next, values leading:

IC50 ([1]; 72 hours)	IC50 ([2]; 72 hours)	IC50 ([1]; Homo sapiens, MDA-MB-231, 72 h)	IC50 ([2]; Homo sapiens, MCF7, 72 h)	Compound
17.9 µM	17.8 µM	–	–	2-(benzo[b]thiazol-2-yl)-5,7-dihydroxy-3-methoxy-6,8-di(3-3-methyl-2-buten-1-yl)-4H-benzopyran-4-one [Compound 49]
13.8 ± 2.1 µM	47.2 ± 22.5 µM	–	–	2-(benzo[d][1,3]dioxo-5-yl)-5,7-dihydroxy-3-methoxy-6,8-di(3-methyl-2-buten-1-yl)-4H-benzopyran-4-one [Compound 21]
77.2 µM	> 100 µM	–	–	2-(piperazin-2-yl)-5,7-dihydroxy-3-methoxy-6,8-di(3-methyl-2-buten-1-yl)-4H-benzopyran-4-one [Compound 30]
–	–	> 100 µM	> 100 µM	CCOc1ccc(-c2oc3c(CC=C(C)C)c(O)c(CC=C(C)C)c(O)c3c(=O)c2OC)cc1 [Compound 24, 2-(4-ethoxyphenyl)-5,7-dihydroxy-3-methoxy-6,8-di(3-methyl-2-buten-1-yl)-4H-benzopyran-4-one]
–	–	18.1 ± 4.3 µM	13.2 µM	COc1c(-c2cccnc2)oc2c(CC=C(C)C)c(O)c(CC=C(C)C)c(O)c2c1=O [Compound 28, 2-(pyridin-3-yl)-5,7-dihydroxy-3-methoxy-6,8-di(3-methyl-2-buten-1-yl)-4H-benzopyran-4-one]
–	–	> 100 µM	12 µM	COc1c(-c2ccccn2)oc2c(CC=C(C)C)c(O)c(CC=C(C)C)c(O)c2c1=O [Compound 29, 2-(pyridin-2-yl)-5,7-dihydroxy-3-methoxy-6,8-di(3-methyl-2-buten-1-yl)-4H-benzopyran-4-one]
–	–	25.1 µM	> 100 µM	COc1c(-c2ccncc2)oc2c(CC=C(C)C)c(O)c(CC=C(C)C)c(O)c2c1=O [Compound 31, 2-(pyridin-4-yl)-5,7-dihydroxy-3-methoxy-6,8-di(3-methyl-2-buten-1-yl)-4H-benzopyran-4-one]
–	–	20 µM	34.4 µM	COc1c(-c2cncnc2)oc2c(CC=C(C)C)c(O)c(CC=C(C)C)c(O)c2c1=O [Compound 32, 2-(pyrimidin-5-yl)-5,7-dihydroxy-3-methoxy-6,8-di(3-methyl-2-buten-1-yl)-4H-benzopyran-4-one]
–	–	22.3 µM	> 100 µM	COc1c(-c2ncccn2)oc2c(CC=C(C)C)c(O)c(CC=C(C)C)c(O)c2c1=O [Compound 33, 2-(pyrimidin-2-yl)-5,7-dihydroxy-3-methoxy-6,8-di(3-methyl-2-buten-1-yl)-4H-benzopyran-4-one]
–	–	25.6 µM	> 100 µM	COc1c(C2CC2)oc2c(CC=C(C)C)c(O)c(CC=C(C)C)c(O)c2c1=O [Compound 34, 2-cyclopropyl-5,7-dihydroxy-3-methoxy-6,8-di(3-methyl-2-buten-1-yl)-4H-benzopyran-4-one]
–	–	> 100 µM	88.1 µM	COc1c(C2CCC2)oc2c(CC=C(C)C)c(O)c(CC=C(C)C)c(O)c2c1=O [Compound 35, 2-cyclobutyl-5,7-dihydroxy-3-methoxy-6,8-di(3-methyl-2-buten-1-yl)-4H-benzopyran-4-one]
–	–	> 100 µM	> 100 µM	COc1c(C2CCCC2)oc2c(CC=C(C)C)c(O)c(CC=C(C)C)c(O)c2c1=O [Compound 36, 2-cyclopentyl-5,7-dihydroxy-3-methoxy-6,8-di(3-methyl-2-buten-1-yl)-4H-benzopyran-4-one]
–	–	21.4 µM	–	CC(C)=CCc1c(O)c(CC=C(C)C)c2oc(-c3ccc(F)cc3)c(O)c(=O)c2c1O [Compound 97, 2-(4-fluorophenyl)-3,5,7-trihydroxy-6,8-di(3-methyl-2-buten-1-yl)-4H-benzopyran-4-one]
